Source: the NIST ThermoML archive (doi:10.1021/je9001653)
Several values for one entry are separate records, joined by “and”; a condition that tells them apart may be missing. Identical values can stand only once.

c1ccc2cc3ccccc3cc2c1 [anthracene]
Crystal
Details | vapor or sublimation pressure
339.25 K | 0.000104 kPa
348.35 K | 0.000289 kPa
360.45 K | 0.000978 kPa
365.66 K | 0.00158 kPa
373.95 K | 0.00311 kPa
376.95 K | 0.00358 kPa
379.55 K | 0.00416 kPa
386.45 K | 0.00813 kPa
389.05 K | 0.00875 kPa and 0.00962 kPa
392.95 K | 0.01486 kPa
393.75 K | 0.01211 kPa and 0.01243 kPa
398.05 K | 0.01765 kPa
398.55 K | 0.01813 kPa and 0.0185 kPa

CC(=O)[CH-]C(C)=O.CC(=O)[CH-]C(C)=O.[Cu+2] [bis(2,4-pentanedionato-O,O')copper]
Crystal
Details | vapor or sublimation pressure [kPa]
367.65 K | 2.2e-05
372.42 K | 3.9e-05
376.95 K | 6.8e-05
381.83 K | 0.00011
386.45 K | 0.000172
388.98 K | 0.000201
395.55 K | 0.000398
398.5 K | 0.000601
400.64 K | 0.000705
403.26 K | 0.000875
405.05 K | 0.00118
414.35 K | 0.00257
417.53 K | 0.00387
423.85 K | 0.00479
433.65 K | 0.00927
442.85 K | 0.0199

c1cc2ccc3cccc4ccc(c1)c2c34 [pyrene]
Crystal 1
Details | vapor or sublimation pressure [kPa]
341.45 K | 7.5e-05
351.05 K | 0.000171
369.85 K | 0.000882
373.95 K | 0.00147
379.55 K | 0.00197
383.95 K | 0.00472
389.05 K | 0.00539
392.95 K | 0.00846
398.55 K | 0.01067
402.05 K | 0.01662
408.05 K | 0.02731
